Measurements published in patent publication US11400059B2, “Treatment of pain and/or pain related symptoms associated with dysmenorrhea” (ALYRA BIOTECH PTY LTD, priority 2017, dated 2022).

Columns and labels:
Assay type in all cases: cell-based
[1] = test system: HEK293/Null1 and HEK293/Null2; experiment: Antagonist screening on TLR−/NLR− control cell lines stimulated with TNFa; settings: stimulated with TNFa at 10 ng/mL
Experimental: (§1) Toll-Like Receptor (TLR), NOD-Like Receptor (NLR) and C-Type Lectin Receptor (CLR) stimulation were tested by assessing NF-κB activation in HEK293 cells expressing a given TLR, NLR or CLR. The activity of the test articles was tested at one concentration and compared to control ligands. These steps were performed in triplicate. In a 96-well plate (200 μL total volume) containing the appropriate cells (50,000-75,000 cells/well), 20 μL of the test article or the positive control ligand was added to the wells. For the antagonist assay, the test article was incubated with the cells, at 37° C. with 5% CO2, for 30 minutes prior to the addition of the positive control ligand to the wells. The media added to the wells was designed for the detection of NF-κB induced SEAP expression. After a 16-24 hr incubation the optical density (OD) was read at 650 nm on a Molecular Devices SpectraMax 340PC absorbance detector.

Human TLR8 = target: T1, Human TLR8 (Homo sapiens, UniProt Q9NR97); experiment: Human TLR antagonist screening, NF-κB SEAP reporter in HEK293 cells; settings: antagonist mode, test article 1 μM, +CL075 200 ng/ml, No Sample 13, Control− 1
T1 construct: expressed in transfected cells; host or cells: HEK293
T1 sequence (Q9NR97 27-1041): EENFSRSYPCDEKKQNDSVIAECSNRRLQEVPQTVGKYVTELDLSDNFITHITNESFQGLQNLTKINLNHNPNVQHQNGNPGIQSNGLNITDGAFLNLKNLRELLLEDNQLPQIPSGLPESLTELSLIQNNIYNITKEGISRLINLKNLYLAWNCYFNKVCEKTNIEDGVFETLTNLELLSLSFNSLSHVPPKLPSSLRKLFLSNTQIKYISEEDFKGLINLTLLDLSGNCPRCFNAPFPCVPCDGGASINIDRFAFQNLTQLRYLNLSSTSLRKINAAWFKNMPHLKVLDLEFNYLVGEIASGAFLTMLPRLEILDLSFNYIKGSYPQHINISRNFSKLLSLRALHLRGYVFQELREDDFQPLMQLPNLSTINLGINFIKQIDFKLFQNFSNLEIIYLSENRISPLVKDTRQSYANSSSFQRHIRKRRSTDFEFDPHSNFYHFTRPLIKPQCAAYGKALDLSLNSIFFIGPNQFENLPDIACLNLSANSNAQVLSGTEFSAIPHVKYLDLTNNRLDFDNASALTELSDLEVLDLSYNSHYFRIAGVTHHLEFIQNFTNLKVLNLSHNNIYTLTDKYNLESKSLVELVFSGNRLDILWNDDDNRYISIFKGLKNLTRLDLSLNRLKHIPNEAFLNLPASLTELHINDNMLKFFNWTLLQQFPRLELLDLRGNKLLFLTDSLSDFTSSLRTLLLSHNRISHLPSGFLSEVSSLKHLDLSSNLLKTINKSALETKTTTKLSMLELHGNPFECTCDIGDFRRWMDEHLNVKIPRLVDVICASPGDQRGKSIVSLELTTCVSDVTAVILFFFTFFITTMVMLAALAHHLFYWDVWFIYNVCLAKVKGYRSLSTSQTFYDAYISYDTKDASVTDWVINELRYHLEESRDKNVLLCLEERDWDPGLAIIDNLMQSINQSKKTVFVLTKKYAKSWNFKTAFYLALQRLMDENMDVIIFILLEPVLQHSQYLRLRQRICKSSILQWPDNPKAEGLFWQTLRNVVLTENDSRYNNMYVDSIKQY
Experimental: as §1, with “triplicate. hTLR8: […]” for “triplicate.”, “detector. Fold induction (ratio of average induced value to average non-induced value) was determined for each TLR, NOD1, NOD2, Dectin-1a, Dectin-1b.” for “detector.”

Human TLR2 = target: T2, Human TLR2 (Homo sapiens, UniProt O60603); experiment: as above; settings: antagonist mode, test article 1 μM, +HKLM 1 × 10^6 cells/mL, No Sample 6, Control− 1
T2 construct: expressed in transfected cells; host or cells: HEK293
T2 sequence (O60603 21-784): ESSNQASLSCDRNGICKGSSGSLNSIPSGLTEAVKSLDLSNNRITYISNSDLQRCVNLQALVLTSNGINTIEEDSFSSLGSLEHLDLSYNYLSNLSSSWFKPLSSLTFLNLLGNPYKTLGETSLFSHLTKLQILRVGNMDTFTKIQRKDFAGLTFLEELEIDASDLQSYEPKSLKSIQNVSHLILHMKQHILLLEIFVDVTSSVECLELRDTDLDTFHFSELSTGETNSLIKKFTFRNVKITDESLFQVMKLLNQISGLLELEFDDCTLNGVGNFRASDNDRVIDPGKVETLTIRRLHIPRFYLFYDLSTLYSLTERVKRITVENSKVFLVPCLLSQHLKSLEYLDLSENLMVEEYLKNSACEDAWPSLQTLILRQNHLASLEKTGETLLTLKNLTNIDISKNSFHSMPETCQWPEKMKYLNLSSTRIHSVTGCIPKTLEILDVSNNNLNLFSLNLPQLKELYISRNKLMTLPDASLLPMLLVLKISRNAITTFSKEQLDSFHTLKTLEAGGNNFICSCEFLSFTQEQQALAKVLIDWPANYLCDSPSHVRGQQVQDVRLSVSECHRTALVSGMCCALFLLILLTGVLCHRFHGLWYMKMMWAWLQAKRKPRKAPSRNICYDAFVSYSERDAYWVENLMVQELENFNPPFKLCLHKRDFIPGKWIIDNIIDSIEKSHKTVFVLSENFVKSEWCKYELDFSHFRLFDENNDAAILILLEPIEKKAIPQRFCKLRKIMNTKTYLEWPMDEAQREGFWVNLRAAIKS
Experimental: as §1, with “triplicate. TLR2: […] Antagonist: 1×10^6 cells/mL:” for “triplicate.”, “detector. Fold induction (ratio of average induced value to average non-induced value) was determined for each TLR, NOD1, NOD2, Dectin-1a, Dectin-1b.” for “detector.”

Structure (SMILES)	effect on TLR−/NLR− control cell lines [1]	Fold Induction (Human TLR8)	Fold Induction (Human TLR8; listed as Nor)	Fold Induction (Human TLR2)	Fold Induction (Human TLR2; listed as Nor)	Fold Induction (Human TLR8; listed as Ami)	Fold Induction (Human TLR2; listed as Ami)
CNCCC=C1c2ccccc2CCc2ccccc21 [Nortriptyline]	slight inhibitory effect	slight inhibitory effect	11	slight inhibitory effect	5	–	–
CN(C)CCC=C1c2ccccc2CCc2ccccc21 [Amitriptyline]	slight inhibitory effect	slight inhibitory effect	–	slight inhibitory effect	–	11	5
